# Source: patent US20120283303A1, “USE OF N-AMINOIMIDAZOLE CYTOPROTECTIVE COMPOUNDS FOR TREATING CELL DEATH AND/OR GSK-3 MEDIATED DISEASES” (K.U.LEUVEN RESEARCH AND DEVELOPMENT, priority 2006, published 2012)
# How the values were obtained:
# [1] = target: T1, p300 (H3 peptide) (Homo sapiens, UniProt Q09472); assay: Radiometric enzyme activity assay, p300 (H3 peptide); format: biochemical; settings: 5 μg/ml NR-818, 10 μM ATP
# T1 construct: purchased Upstate Biotechnology
# Experimental: (§1) GSK-3 were assayed for their ability to phosphorylate the appropriate peptide/protein substrate in the presence of 5 μg/ml NR-818 and 10 μM ATP. Using the direct radiometric approach, kinase activities were determined and expressed as % activity compared to the untreated control (Upstate Biotechnology, Lake Placid, N.Y.). Activities are given as the mean of duplicate determinations relative to control incubations in which the inhibitor was substituted with DMSO. In the following table 1 providing results for NR818, the following abbreviations are used: • CDK, cyclin-dependent kinase; • CK, casein kinase; • eEF-2K, eukaryotic elongation factor-2 kinase; • JNK, c-Jun N-terminal kinase; • MAPK, mitogen-activated protein kinase; • PKC, protein kinase C; and • PI 3-kinase, phosphatidylinositol 3-kinase.
# [2] = target: T2, p300 (H4 peptide) (Homo sapiens, UniProt Q09472); assay: Radiometric enzyme activity assay, p300 (H4 peptide); format: biochemical; settings: 5 μg/ml NR-818, 10 μM ATP
# T2 construct: purchased Upstate Biotechnology
# Experimental: as §1
# [3] = target: T3, P/CAF (H3 peptide) (Homo sapiens, UniProt Q92831); assay: Radiometric enzyme activity assay, P/CAF (H3 peptide); format: biochemical; settings: 5 μg/ml NR-818, 10 μM ATP
# T3 construct: purchased Upstate Biotechnology
# Experimental: as §1
# [4] = target: T4, P/CAF (H4 peptide) (Homo sapiens, UniProt Q92831); assay: Radiometric enzyme activity assay, P/CAF (H4 peptide); format: biochemical; settings: 5 μg/ml NR-818, 10 μM ATP
# T4 construct: purchased Upstate Biotechnology
# Experimental: as §1
# [5] = tested on: M17-TAU P301L cells; assay: TAU cytotoxicity (LDH leakage) in retinoic acid incubated M17-TAU P301L cells; format: cell-based, human; settings: Homo sapiens, 168 h, reduction of LDH activity of retinoic acid incubated M17-TAU P301L cells, 7 days; read-out: IC50
# Text: An TAU expression plasmid was constructed by sub-cloning the cDNA of human TAU-P301L (encoding for TAU with proline 301 substituted by a leucine residue) into mammalian expression vector pcDNA3.1 resulting in plasmid pcDNA3.1-TAU P301L. Plasmids pcDNA3.1 and pcDNA3.1-TAU P301L were transfected to human neuroblastoma cells ([…]; ATCC No. CRL-2267) and independent clonal lines with the plasmids stably integrated into the genome were selected. […] Expression of the TAU P301L genes in the cell lines was confirmed by Western analysis.
# In degenerated or dead cells, lactate dehydrogenase (LDH) is leaked out of the cells into the extracellular environment due to a loss of plasma-membrane integrity. This principle was used to determine cytotoxicity by quantifying the level of leaked LDH into the growth medium.
# The detailed method for determining TAU cytotoxicity was as follows: From appropriate precultures of M17-3.1 and M17-TAU(P301L) cells were seeded at 2500 cells/cm2 in Optimem Reduced Serum without phenol red (Gibco, Cat. 31985-047) supplemented with 1% fetal calf serum, 1 mM sodium pyruvate, 1× non-essential amino acids, 500 μg/ml G418 0.5× antibiotic/antimycotic. After 3 hours of incubation at 37° C./5% CO2 1 volume of Optimem Reduced Serum (same as described above; except without fetal calf serum) supplemented with 2.5 μM retinoic acid (RA) was added. The cells were further incubated for 7 days. Subsequently, LDH activity was determined using Promega Cytotox 96 Non-Radioactive cytotoxicity assay, (Cat. G1780) according the supplier's instructions.
# The M17-TAU P301L cell line made it possible to assess the ability of the compounds of this invention to counteract TAU cytotoxicity. […] Potency of the relevant compounds was determined by testing them at different concentrations ranging from non-effective (thus at a relatively low concentration) to an effective concentration for their ability to reduce LDH activity of retinoic acid incubated M17-TAU P301L cells.
# [6] = tested on: motor neurons; assay: Basal survival of motor neurons in co-culture on glial feeder layer; format: cell-based, Wistar rats; settings: FIG. 1A
# Experimental: Cell cultures: Primary motor neuron cultures were prepared from Wistar rats as follows. Spinal cords were dissected from E14 embryos and collected in Hanks' Balanced Salt Solution (HBSS; Gibco Invitrogen, Grand Island, N.Y). Ventral cords were minced and digested for 15 minutes at 37° C. in 0.05% trypsin in HBSS. The solution was then replaced with medium A (L15 (Sigma, St.-Louis, Mo.) supplemented with glucose, progesterone, insulin, putrescine, conalbumin, sodium selenite, penicillin, streptomycin and 2% horse serum) containing 0.4% BSA and 20 μg/ml DNase and the tissue was dissociated by trituration. The resulting single cell suspension was layered on a 6.8% (weight/volume in L15) optiprep cushion (one spinal cord per tube) and centrifuged at 500 g for 15 minutes. […] To remove debris, both fractions were resuspended in medium A and centrifuged for 20 minutes at 75 g on a 4% BSA cushion. For co-cultures, 30,000 motor neurons of the F1 fraction were seeded on a glial feeder layer. Glial feeder layers were prepared by plating F2 cells in 35 mm dishes. After 4 weeks in vitro, cell division was halted by exposure to 10^−5 M cytosine arabinoside. […]
# Exposure experiments: After 1 day in culture NAIM was added to the culture medium at different concentrations. […] In the experiment in which the effect of fresh medium was evaluated, the culture medium was replaced in total every day. […]
# [7] = tested on: motor neurons; assay: Basal survival of motor neurons in monoculture; format: cell-based, Wistar rats
# Experimental: Cell cultures: Primary motor neuron cultures were prepared from Wistar rats as follows. Spinal cords were dissected from E14 embryos and collected in Hanks' Balanced Salt Solution (HBSS; Gibco Invitrogen, Grand Island, N.Y). Ventral cords were minced and digested for 15 minutes at 37° C. in 0.05% trypsin in HBSS. The solution was then replaced with medium A (L15 (Sigma, St.-Louis, Mo.) supplemented with glucose, progesterone, insulin, putrescine, conalbumin, sodium selenite, penicillin, streptomycin and 2% horse serum) containing 0.4% BSA and 20 μg/ml DNase and the tissue was dissociated by trituration. The resulting single cell suspension was layered on a 6.8% (weight/volume in L15) optiprep cushion (one spinal cord per tube) and centrifuged at 500 g for 15 minutes. […] To remove debris, both fractions were resuspended in medium A and centrifuged for 20 minutes at 75 g on a 4% BSA cushion. For co-cultures, 30,000 motor neurons of the F1 fraction were seeded on a glial feeder layer. Glial feeder layers were prepared by plating F2 cells in 35 mm dishes. After 4 weeks in vitro, cell division was halted by exposure to 10^−5 M cytosine arabinoside. For monocultures, 45,000 motor neurons were seeded in 35 mm dishes.
# Immunocytochemistry: Cell cultures were washed and fixed in cooled paraformadehyde 4% for 30 minutes. After three washes, cells were incubated in blocking solution (10% normal serum in phosphate buffered saline (PBS)) for 1 hour. Monoclonal anti-SMI-32 ( 1/10,000, Sternberger Monoclonal Inc., Luthersville, Md.) and goat anti-GFAP ( 1/10,000, Dako, Denmark) were incubated overnight in 1% normal serum in PBS. Secondary antibodies used were goat anti-mouse IgG Alaxa555 ( 1/500, Molecular Probes, Eugene, Oreg.) and donkey anti-goat FITC ( 1/500, Jackson ImmunoResearch, West Grove, Pa.).
# Exposure experiments: After 1 day in culture NAIM was added to the culture medium at different concentrations. All other compounds were also added after 24 hours in culture. When culture medium was replaced, only half of the medium was taken and replaced by fresh medium, in which all different compounds were substituted as to maintain the initial concentration. In the experiment in which the effect of fresh medium was evaluated, the culture medium was replaced in total every day. […]
# In order to determine whether the effect of NAIM was mediated through the secretion of a soluble factor in the medium by the underlying astroglial feeder layer, we prepared monocultures in which only motor neurons were present. […] In order to determine whether the protective effect of the compound was dose-dependent, we conducted a dose-response study, in which cultures were treated with different concentrations of NAIM from day 1 off and cell survival was assessed on day 5.
# T3 sequence (Q92831 whole entry): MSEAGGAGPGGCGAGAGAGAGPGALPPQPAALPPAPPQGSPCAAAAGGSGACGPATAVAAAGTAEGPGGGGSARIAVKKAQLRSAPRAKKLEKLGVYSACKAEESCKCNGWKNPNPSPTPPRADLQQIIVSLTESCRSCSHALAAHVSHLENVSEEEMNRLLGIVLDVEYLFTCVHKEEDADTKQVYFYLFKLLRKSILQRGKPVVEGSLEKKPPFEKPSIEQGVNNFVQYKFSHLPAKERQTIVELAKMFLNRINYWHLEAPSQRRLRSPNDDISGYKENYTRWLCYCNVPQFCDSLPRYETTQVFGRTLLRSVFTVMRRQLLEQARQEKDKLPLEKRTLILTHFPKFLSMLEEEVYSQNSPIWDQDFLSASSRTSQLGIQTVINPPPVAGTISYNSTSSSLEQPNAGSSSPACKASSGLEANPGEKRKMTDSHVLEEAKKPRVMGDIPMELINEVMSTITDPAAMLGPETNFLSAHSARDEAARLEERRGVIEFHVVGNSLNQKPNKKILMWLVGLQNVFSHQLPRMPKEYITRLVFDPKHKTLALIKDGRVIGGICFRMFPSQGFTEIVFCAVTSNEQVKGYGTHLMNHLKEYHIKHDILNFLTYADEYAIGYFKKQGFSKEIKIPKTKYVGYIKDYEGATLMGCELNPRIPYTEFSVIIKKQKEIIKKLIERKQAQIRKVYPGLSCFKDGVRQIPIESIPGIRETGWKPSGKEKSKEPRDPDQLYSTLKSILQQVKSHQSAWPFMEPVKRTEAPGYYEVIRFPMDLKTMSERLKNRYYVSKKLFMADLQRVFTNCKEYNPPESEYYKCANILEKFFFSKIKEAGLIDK
# T4 sequence (Q92831 whole entry): as above
# T1 sequence (Q09472 whole entry): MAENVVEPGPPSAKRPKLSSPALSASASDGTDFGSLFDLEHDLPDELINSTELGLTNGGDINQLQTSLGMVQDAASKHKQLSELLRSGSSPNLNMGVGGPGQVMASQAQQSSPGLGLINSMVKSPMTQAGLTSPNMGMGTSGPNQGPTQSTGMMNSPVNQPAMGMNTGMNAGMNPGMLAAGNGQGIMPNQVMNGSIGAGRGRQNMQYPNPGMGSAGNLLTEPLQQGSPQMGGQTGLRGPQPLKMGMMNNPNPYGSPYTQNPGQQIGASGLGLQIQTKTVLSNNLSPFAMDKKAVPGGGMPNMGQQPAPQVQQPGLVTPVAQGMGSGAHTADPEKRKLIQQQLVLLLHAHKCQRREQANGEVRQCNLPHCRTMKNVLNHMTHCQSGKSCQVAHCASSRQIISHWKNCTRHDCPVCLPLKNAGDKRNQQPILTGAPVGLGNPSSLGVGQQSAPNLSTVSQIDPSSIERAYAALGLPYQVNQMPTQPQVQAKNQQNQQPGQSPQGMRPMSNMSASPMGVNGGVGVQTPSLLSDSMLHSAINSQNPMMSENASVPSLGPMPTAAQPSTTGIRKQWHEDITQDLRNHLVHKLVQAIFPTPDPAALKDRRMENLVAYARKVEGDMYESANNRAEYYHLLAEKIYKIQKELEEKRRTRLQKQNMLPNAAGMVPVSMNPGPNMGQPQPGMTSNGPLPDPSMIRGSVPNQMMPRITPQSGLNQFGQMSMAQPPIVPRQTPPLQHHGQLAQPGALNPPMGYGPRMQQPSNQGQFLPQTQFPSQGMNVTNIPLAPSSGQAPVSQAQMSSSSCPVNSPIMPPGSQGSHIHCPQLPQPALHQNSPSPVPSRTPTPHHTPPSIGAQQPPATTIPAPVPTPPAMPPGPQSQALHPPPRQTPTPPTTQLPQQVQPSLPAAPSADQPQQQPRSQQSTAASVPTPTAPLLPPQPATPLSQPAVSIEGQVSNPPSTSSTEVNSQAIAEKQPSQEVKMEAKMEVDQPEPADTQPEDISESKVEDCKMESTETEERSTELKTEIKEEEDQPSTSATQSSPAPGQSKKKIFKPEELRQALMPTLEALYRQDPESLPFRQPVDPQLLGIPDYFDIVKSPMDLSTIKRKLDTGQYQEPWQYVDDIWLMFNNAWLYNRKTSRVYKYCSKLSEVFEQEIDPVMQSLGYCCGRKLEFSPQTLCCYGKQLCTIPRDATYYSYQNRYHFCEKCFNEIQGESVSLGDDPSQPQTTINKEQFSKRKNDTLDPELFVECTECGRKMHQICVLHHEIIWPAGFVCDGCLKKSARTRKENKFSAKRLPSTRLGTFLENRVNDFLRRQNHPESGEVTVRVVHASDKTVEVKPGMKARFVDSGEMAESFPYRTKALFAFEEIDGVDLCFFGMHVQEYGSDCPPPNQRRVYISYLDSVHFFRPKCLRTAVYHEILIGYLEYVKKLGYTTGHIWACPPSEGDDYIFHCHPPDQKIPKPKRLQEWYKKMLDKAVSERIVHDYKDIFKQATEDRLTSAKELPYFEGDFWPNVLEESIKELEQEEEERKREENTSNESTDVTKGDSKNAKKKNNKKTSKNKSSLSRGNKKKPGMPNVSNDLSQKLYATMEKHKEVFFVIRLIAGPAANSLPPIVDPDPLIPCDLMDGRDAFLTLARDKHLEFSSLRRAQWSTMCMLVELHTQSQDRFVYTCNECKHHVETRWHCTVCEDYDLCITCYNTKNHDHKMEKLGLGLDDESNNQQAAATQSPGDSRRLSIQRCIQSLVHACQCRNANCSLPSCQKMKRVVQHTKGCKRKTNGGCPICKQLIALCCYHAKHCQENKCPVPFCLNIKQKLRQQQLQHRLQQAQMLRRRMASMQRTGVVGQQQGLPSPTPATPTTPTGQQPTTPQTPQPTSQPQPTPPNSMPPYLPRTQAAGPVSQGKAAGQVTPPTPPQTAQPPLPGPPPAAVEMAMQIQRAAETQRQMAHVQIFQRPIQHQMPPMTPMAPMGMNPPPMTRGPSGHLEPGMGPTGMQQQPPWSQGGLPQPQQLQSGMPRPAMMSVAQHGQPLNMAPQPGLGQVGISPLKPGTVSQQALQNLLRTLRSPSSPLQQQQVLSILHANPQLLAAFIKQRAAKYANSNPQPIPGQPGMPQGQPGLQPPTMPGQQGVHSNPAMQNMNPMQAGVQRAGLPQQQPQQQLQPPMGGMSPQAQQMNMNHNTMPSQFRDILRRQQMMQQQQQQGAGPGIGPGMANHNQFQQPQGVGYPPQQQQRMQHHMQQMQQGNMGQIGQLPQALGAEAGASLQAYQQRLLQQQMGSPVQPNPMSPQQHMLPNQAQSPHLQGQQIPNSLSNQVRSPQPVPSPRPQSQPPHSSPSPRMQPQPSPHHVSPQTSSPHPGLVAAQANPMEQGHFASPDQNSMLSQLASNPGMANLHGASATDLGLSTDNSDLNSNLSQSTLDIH
# T2 sequence (Q09472 whole entry): as above
compound,measurement,setting,value
"Cc1nc(S)n(Nc2cccc3ccccc23)c1-c1ccccc1 [HER/NR818, 4-Methyl-1-(naphthalen-1-ylamino)-5-phenyl-1,3-dihydro-imidazole-2-thione]",Activity (% of control),[1],88 % of control
same,Activity (% of control),[2],100 % of control
same,Activity (% of control),[3],99 % of control
same,Activity (% of control),[4],103 % of control
same,IC50,[5],0.013 mg/L
same,basal survival of motor neurons,[6],significant increase in the basal survival
same,effect of daily medium replacement on protective properties,"[7]; medium replaced every day, FIG. 3",no effect on the protective properties
same,basal survival of motor neurons,"[7]; monoculture, FIG. 1B",significant increase of the basal survival
same,"protective effect in combination with IL-2, IL-2-receptor blocking antibody or GM-CSF","[7]; monoculture, survival on day 5, FIG. 4",not influenced by either of the added compounds
same,optimal concentration for motor neuron survival,"[7]; monocultures, dose-response, treated from day 1, survival assessed on day 5, FIG. 2",1 µg/mL
